Data published in patent publication US20190308988A1, “OPIOID RECEPTOR ANTAGONIST PRODRUGS” (Nirsum Laboratories, Inc., priority 2017, published 2019).
Values after ≈ are worked out from the molar mass of the structure shown.

Experiments:
[1] = Dog pharmacokinetic studies, deep intramuscular administration; type: in vivo, Beagle dogs; details: Beagle, dog, plasma, im, 48 mg/kg, IM 48 mg/kg, Sesame oil + 1% Benzyl Alcohol; for AUC(0-inf): read-out: AUC0-inf (ng · h/mL) prodrug
Protocol: The purpose of this study is to determine the pharmacokinetics of test compounds in plasma, following deep intramuscular administration to Beagle dogs (n=3, unless otherwise specified).
The dose formulation (concentration—400 mg base equivalents/ml in sesame oil+1% benzyl alcohol, unless otherwise specified) was administered via deep intramuscularly (unless otherwise specified). The injection vehicle was also dosed via deep intramuscular route (unless otherwise specified) on contralateral site of each animal at study initiation. The animals were sedated with Propofol at 6 mg/kg via IV administration. Following sedation hair was carefully removed from around the injection site and the area gently cleaned. Care will be taken to avoid irritating skin during shaving and cleaning the injection site. Then dogs will be dosed with deep IM administration. At least 2.5 cm depth from the surface into the central aspect of the quadriceps or biceps femoris muscle, by angling the needle toward the femur. If the needle hits the femur, simply draws back slightly and then inject. The dose volume will be determined by the animals' body weight collected on the morning of dosing day. For repeated administration, the injection sites may be rotated to minimize tissue injury.
Blood samples were collected from a peripheral vessel from restrained, non-sedated animals per sampling time point.
Approximately 0.8 mL blood will be collected at each time point.
Each collected blood sample was centrifuged for 4 minutes at 4° C. and 10000 rpm for plasma collection. Plasma was collected and transferred into a pre-labeled PP tube in dry ice at each time point and precipitated immediately using ACN at a ratio of 1:4 (plasma:ACN).
LC-MS/MS methods for the quantitative determination of test compound in biological matrix were developed. […] The sample analysis was performed concurrently with a set of calibration standards and two sets of QC samples using the LC-MS/MS method.
Plasma concentration versus time data was analyzed by non-compartmental approaches using the Phoenix WinNonlin 6.3 software program. Cmax, Tmax, T1/2, AUC(0-t), AUC(0-inf), MRT(0-t), MRT(0-inf) and graphs of plasma concentration versus time profile were prepared.

[2] = Polymorph screening of solid state drug substances (Table 23); type: physicochemical; details: stirred 50 °C 72 hours; for Dry method and appearance: dried solid
[3] = Solubility determination in oil (Table 10); details: thermodynamic from solid; for solubility thermodynamic: water, Equilibrium solubility: Water; for solubility at 24 h: 25 °C, Obs. Temp. 25 °C
Protocol: A known amount of test substance (˜40 mg) was weighed into the vial, 100 μL of oil was added and heated to 60° C. and then system was slurried to reach equilibrium. […] Extra oil was added into the vial once compound precipitated out and then the system was re-equilibrated at 1000 rpm at room temperature (25° C.). Final concentration was determined by HPLC method as described below in Table 6a and 6b.

[4] = 40 °C, oil or lipid, Approximate Solubility in Excipient: Cottonseed oil, Heating Temp. 40 °C, Obs. Temp. 40 °C
[5] = 40 °C, oil or lipid, Approximate Solubility in Excipient: Cottonseed oil, Heating Temp. 60 °C, Obs. Temp. 40 °C
[6] = 40 °C, oil or lipid, Approximate Solubility in Excipient: Sesame oil, Heating Temp. 40 °C, Obs. Temp. 40 °C
[7] = 40 °C, oil or lipid, Approximate Solubility in Excipient: Sesame oil, Heating Temp. 60 °C, Obs. Temp. 40 °C
[8] = 40 °C, organic solvent or mixture, Approximate Solubility in Excipient: Ethanol, Heating Temp. 40 °C, Obs. Temp. 40 °C
[9] = 40 °C, Heating Temp. 40 °C, Obs. Temp. 40 °C
[10] = after slurry in EtOAc, temperatures N/A
[11] = 40 °C, Heating Temp. 60 °C, Obs. Temp. 40 °C
[12] = 40 °C, organic solvent or mixture, Approximate Solubility in Excipient: Ethanol, Heating Temp. 60 °C, Obs. Temp. 40 °C
[13] = oil or lipid, Approximate Solubility in Excipient: Cottonseed oil, Heating Temp. 60 °C
[14] = oil or lipid, Approximate Solubility in Excipient: Sesame oil, Heating Temp. 60 °C

Row | Structure (SMILES) | XRPD results (Dried) ([2]; Acetone) | Dry method and appearance ([2]; Acetone) | XRPD results (Dried) ([2]; EtOAc) | Dry method and appearance ([2]; EtOAc) | XRPD results (Dried) ([2]; Heptane) | Dry method and appearance ([2]; Heptane) | XRPD results (Dried) ([2]; Isopropanol) | Dry method and appearance ([2]; Isopropanol) | XRPD results (Dried) ([2]; MTBE) | Dry method and appearance ([2]; MTBE) | solubility [3, 4] [mg/mL] | solubility [3, 5] [mg/mL] | solubility [3, 6] [mg/mL] | solubility [3, 7] [mg/mL] | solubility [3, 8] [mg/mL] | solubility thermodynamic [3, 9] [µg/mL] | solubility thermodynamic [3, 11] [µg/mL] | other results
1 | C=C1CC[C@@]2(O)C3Cc4ccc(OCOC(=O)OCCCCCCCC/C=C/CCCCCCCC)c5c4[C@@]2(CCN3CC2CC2)[C@H]1O5 [Compound 1, (((4aS,7aS,12bS)-3-(cyclopropylmethyl)-4a-hydroxy-7-methylene-2,3,4,4a,5,6,7,7a-octahydro-1H-4,12-methanobenzofuro[3,2-e]isoquinolin-9-yl)oxy)methyl ((E)-octadec-9-en-1-yl) carbonate] | – | – | – | – | – | – | – | – | – | – | – | – | – | – | – | – | – | AUC(0-inf) [1]: 1040 ng·h/mL; half-life ([1]; read-out: Half-life t1/2 (hour) prodrug (converted)): 261 h
2 | CCCCCCCC/C=C/CCCCCCCCOC(=O)OCOc1ccc2c3c1O[C@H]1C(=O)CC[C@@]4(O)C(C2)N(CC2CC2)CC[C@]314 [Compound 7, (((4aS,7aR,12bS)-3-(cyclopropylmethyl)-4a-hydroxy-7-oxo-2,3,4,4a,5,6,7,7a-octahydro-1H-4,12-methanobenzofuro[3,2-e]isoquinolin-9-yl)oxy)methyl ((E)-octadec-9-en-1-yl) carbonate] | – | – | – | – | – | – | – | – | – | – | – | – | – | – | – | – | – | AUC(0-inf) [1]: 610 ng·h/mL
3 | C=C1CC[C@@]2(O)C3Cc4ccc(OC(=O)CCCCCCCCCCCCCCCCCCCCC)c5c4[C@@]2(CCN3CC2CC2)[C@H]1O5 [Compound 14, (4aS,7aS,12bS)-3-(cyclopropylmethyl)-4a-hydroxy-7-methylene-2,3,4,4a,5,6,7,7a-octahydro-1H-4,12-methanobenzofuro[3,2-e]isoquinolin-9-yl docosanoate] | Pattern A | Evaporation/white powder | Pattern A | Evaporation/white powder | Pattern B | Centrifugation/white powder | Pattern A | Evaporation/white powder | Pattern A | Evaporation/white powder | < 50 | < 25 | < 51 | < 25 | 69 to 83 (≈ 104 to 125 mM) | 10 (≈ 0.0151 mM) | – | solubility thermodynamic [3, 10]: < 0.5 µg/mL; solubility thermodynamic ([3]; after slurry in Heptane, temperatures N/A): < 0.5 µg/mL
4 | C=C1CC[C@@]2(O)C3Cc4ccc(OC(=O)CCCCCCCCCCCCCCCCCCC)c5c4[C@@]2(CCN3CC2CC2)[C@H]1O5 [Compound 16, (4aS,7aS,12bS)-3-(cyclopropylmethyl)-4a-hydroxy-7-methylene-2,3,4,4a,5,6,7,7a-octahydro-1H-4,12-methanobenzofuro[3,2-e]isoquinolin-9-yl icosanoate] | Pattern A | Evaporation/white powder | Pattern A | Evaporation/white powder | Pattern A | Centrifugation/white powder | Pattern A | Centrifugation/white powder | Pattern A | Evaporation/white powder | 57 to 67 (≈ 89.9 to 106 mM) | 201 to 403 (≈ 317 to 636 mM) | 68 to 81 (≈ 107 to 128 mM) | 202 to 404 (≈ 319 to 637 mM) | < 25 | 206 (≈ 0.325 mM) | 11 (≈ 0.0174 mM) | –
5 | C=C1CC[C@@]2(O)C3Cc4ccc(OC(=O)OCCCCCCCCCCCCCCCC)c5c4[C@@]2(CCN3CC2CC2)[C@H]1O5 [Compound 19, (4aS,7aS,12bS)-3-(cyclopropylmethyl)-4a-hydroxy-7-methylene-2,3,4,4a,5,6,7,7a-octahydro-1H-4,12-methanobenzofuro[3,2-e]isoquinolin-9-yl hexadecyl carbonate] | Pattern A | Evaporation/white powder | Pattern A | Evaporation/white powder | Pattern A | Evaporation/white powder | Pattern A | Evaporation/white powder | Pattern A | Evaporation/white powder | 67 to 80 (≈ 110 to 132 mM) | – | 103 to 137 (≈ 169 to 225 mM) | – | 27 to 42 (≈ 44.4 to 69.1 mM) | 46.8 (≈ 0.077 mM) | – | –
6 | CCCCCCCCCCCCCCCCOC(=O)Oc1ccc2c3c1O[C@H]1C(=O)CC[C@@]4(O)C(C2)N(CC2CC2)CC[C@]314 [Compound 21, (4aS,7aR,12bS)-3-(cyclopropylmethyl)-4a-hydroxy-7-oxo-2,3,4,4a,5,6,7,7a-octahydro-1H-4,12-methanobenzofuro[3,2-e]isoquinolin-9-yl hexadecyl carbonate] | Pattern A | Evaporation/white powder | Pattern A | Evaporation/white powder | Pattern A | Evaporation/white powder | Pattern A | Evaporation/white powder | Pattern A | Evaporation/white powder | – | 101 to 135 (≈ 166 to 221 mM) | – | 101 to 134 (≈ 166 to 221 mM) | – | – | 0.6 (≈ 0.000984 mM) | solubility [3, 12]: 50 to 100 mg/mL (≈ 82 to 164 mM)
7 | C=C1CC[C@@]2(O)C3Cc4ccc(OC(=O)OCCCCCCCCCCCCCC)c5c4[C@@]2(CCN3CC2CC2)[C@H]1O5 [Compound 31, (4aS,7aS,12bS)-3-(cyclopropylmethyl)-4a-hydroxy-7-methylene-2,3,4,4a,5,6,7,7a-octahydro-1H-4,12-methanobenzofuro[3,2-e]isoquinolin-9-yl tetradecyl carbonate] | Pattern A | Evaporation/white powder | Pattern A | Evaporation/white powder | Pattern A | Evaporation/white powder | Pattern A | Evaporation/white powder | Pattern A | Evaporation/white powder | – | – | – | – | – | < 1 | – | solubility at 24 h [3, 13]: > 417 mg/mL; solubility at 24 h [3, 14]: > 414 mg/mL
8 | CCCCCCCCCCCCCCCC(=O)Oc1ccc2c3c1O[C@H]1C(=O)CC[C@@]4(O)C(C2)N(CC2CC2)CC[C@]314 [Compound 55, (4aS,7aR,12bS)-3-(cyclopropylmethyl)-4a-hydroxy-7-oxo-2,3,4,4a,5,6,7,7a-octahydro-1H-4,12-methanobenzofuro[3,2-e]isoquinolin-9-yl palmitate] | Pattern B | Evaporation/white powder | Pattern B | Evaporation/white powder | Pattern B | Evaporation/white powder | Pattern B | Evaporation/white powder | Pattern B | Evaporation/white powder | – | > 400 | – | > 395 | – | – | 6.6 (≈ 0.0114 mM) | solubility at 24 h [3, 13]: < 50 mg/mL; solubility at 24 h [3, 14]: < 50 mg/mL; solubility [3, 12]: > 401 mg/mL; solubility thermodynamic [3, 10]: < 0.5 µg/mL
